The results in this text go back to patent publication US5712274A, “Thienotriazolodiazepine compounds and their pharmaceutical use” (Yoshitomi Pharmaceutical Industries, Ltd., priority 1995, dated 1998).

In assay [1] the test system is thioglycollate (TG) medium-induced infiltration of leukocytes. Kind of assay: Effect on thioglycollate (TG) medium-induced infiltration of leukocytes. Format: in vivo, BALB/c mice. As to conditions: TG medium 1 ml, day 4. Here is the method: Effect on thioglycollate (TG) medium-induced infiltration of leukocytes
One ml of TG medium was injected into peritoneal cavity of BALB/c mice on day 0. On day 4, leukocytes infiltrating into the peritoneal cavity were collected with 3 ml of phosphatebuffered saline containing 0.02% EDTA and the density of leukocytes (cells/ml) was counted with an automatic blood cell counter. Total number of leukocytes (X) was calculated from the density of leukocytes (A) with the following formula.
Test compounds were suspended in 0.5% hydroxypropylmethyl-cellulose solution and administered p.o. (0.1 ml/10 g body weight) on days 0 to 3.

Another assay deals with glomerulonephritis. Kind of assay: Effect on glomerulonephritis in mice (anti-GBM antiserum). The assay is classed as in vivo, female C57BL/6 mice. Conditions: 12 days after anti-GBM antiserum, 0-5 points. The method, then:
Effect on glomerulonephritis in mice
Rabbit immunoglobulin G solution (4 mg/ml in saline) was mixed with Freund's complete adjuvant at a ratio of 1:1 and the emulsion was prepared. The emulsion was injected into peritoneal cavity of female C57BL/6 mice (0.25 ml/mouse). After 5 days, rabbit anti-mouse glomerular basement membrane (GBM) antiserum obtained by the method of Nagai et al. (Japan. J. Pharmacol., 32, 1117, 1982) was administered i.v. (0.08 ml/mouse). […] Test compounds were suspended in 0.5% hydroxypropylmethylcellulose (HPMC) solution and administered p.o. (0.1 ml/10 g body weight) for 13 days beginning on the day of anti-GBM ant-serum injection.

Assay [2] has as its system antigen induced Eosinophils accumulation into lungs. Kind of assay: Effect on antigen induced eosinophils accumulation into lungs in actively sensitized guinea pigs. Format: in vivo, male Dunkin-Hartley guinea pigs. As to conditions: 30 mg/kg p.o., BALF 24 h after antigen exposure. The method, then:
Effect on antigen induced Eosinophils accumulation into lungs in actively sensitized guinea pigs
Male Dunkin-Hartley guinea pigs (4W, Japan SLC, Inc.) were used throughout this study.
Sensitized animals were orally administered (p.o.) with compound or solvent (0.5% hydroxymethylcellulose) 30 min. before final sensitization, 30 min. before antigen exposure and 4.5 h after antigen exposure.
Egg albumin (EA, 10 μg) was added to AI(OH)3 (10 mg) in sterile physiological saline (0.5 ml) and mixed in a blender. This mixture was injected intraperitoneally into recipients. And after 14 days and 21 days, the procedure was repeated. Seven days after the final sensitization procedure, Mepyramine 10 mg/kg was injected intraperitoneally into the sensitized animals. After 30 min., the animals were exposed to aerosol of 1% EA in sterile physiological saline for 5 min.
24 h after antigen exposure, the animals were killed by exsanguination and tracheae were cannulated. And the lungs were lavaged three times with 10 ml of sterile physiological saline. Lavage fluid (BALF) was centrifuged (800 rpm for 10 min. at 4° C.) and the cell pellet was resuspended in 10 ml of sterile physilolgical saline and total cell numbers in BALF were counted in a hemocytometer (MEK 4200, Nihon-kohden, Ltd.). Differential cell counts were made from centrifuged preparations stained with May-Giemsa stain.

`CNC(=O)C[C@@H]1N=C(c2ccc(Cl)cc2)c2c(sc(C)c2C)-n2c(C)nnc21` [Example 1, (S)-N-methyl-4-(4-chloro-phenyl)-2,3,9-trimethyl-6H-thieno[3,2-f][1,2,4]triazolo[4,3-a]-[1,4]diazepine-6-acetamide 1/4 hydrate]: the “Total number of leukocytes (mean ± S.D.)” value is recorded as 1059 ± 285 × 10^4 in assay [1] (0.03 mg/kg/day p.o.), 719 ± 308 × 10^4 in assay [1] (0.1 mg/kg/day p.o.) and 442 ± 117 × 10^4 in assay [1] (0.3 mg/kg/day p.o.). For the same molecule, the “Score (mean ± S.D.) of protein level in urine” value is 2.56 ± 0.53 in the assay on glomerulonephritis (1 mg/kg/day p.o.) and 2.22 ± 0.67 with glomerulonephritis (3 mg/kg/day p.o.). Besides, the Number of eosinophils in assay [2] is given as 7.0 ± 1.4 × 10^6.
